US20030054389A1, “Methods for identifying agents that induce a cellular phenotype, and compositions thereof” (priority 2001, published 2003)

Legend:
[1] = test system: ECR293 cells containing pBIGFII and ecdysone receptor (pVgRXR); assay: Ecdysone-inducible pBIGFII vector fluorescence in ECR293 cells; format: cell-based; details: 5 μM ponesterone A
Text: As an alternative to the constitutive pCLMFG vector, an inducible construct that can be regulated by ecdysone was constructed as follows. The PmlI/XhoI fragment from pVT324 was inserted into the MCS of the PIND vector (Invitrogen). This product was then digested with BglII, blunt-ended and inserted into a pBabe-K-ras vector (pVT313-based) that had been digested with BamHI/XhoI and blunted (Klenow Fragment). The resulting vector was designated pBabe-Forward-1. The XbaI fragment of pVT324 was then inserted into the compatible site of pBabe-Forward-1. The resulting vector was designated pBIGFII. Vector pBIGFII was subsequently transfected into cells (ECR293, Invitrogen) that contain an endogenous copy of the ecdysone receptor (pVgRXR).

WM35 (melanoma) cells = assay: Caspase-3 fluorescent substrate (Rhodamine 123-YVAD) and PI staining of WM35 floaters; format: cell-based; details: Cisplatin 15 μg/ml, floaters collected 18-24 hours after induction
Procedure: WM35 cells were passed one day prior to induction of apoptosis and incubated for 24 hrs to allow the cells to attach to the substrate. The media was subsequently removed, the remaining adherent cells washed 1× with PBS, and subsequently exposed to Cisplatin (15 μg/ml) in fresh media. Eighteen to twenty-four hours after the induction of apoptosis, the floater cell population was collected, pelleted by centrifugation (400× g), and resuspended at 3×10^6 cells/ml in PBS. Samples were then split into four groups: (I) uninduced minus Rhodamine 123-YVAD (substrate), (2) uninduced plus substrate, (3) induced minus substrate, and (4) induced plus substrate. For samples exposed to Rhodamine 123-YVAD substrate, 50 ul of a pre-warmed (37° C.) cell suspension was combined with 25 ul of a stock substrate solution (Celiprobe). Samples were incubated for 60 minutes at 37° C. and then placed on ice prior to FACS analysis. In addition to caspase-3 staining, a replicate of each sample was stained with propidium iodide to determine the percentage of cells within the population whose membranes had been compromised and the overlap between PI and caspase-3 staining. […] Emission spectra were read at 515-535 nm wavelength using the FLI (PMT2) 525 nm blue filter.

WM35 cells = assay: Nuclear condensation / ethidium homodimer and Syto16 staining, WM35; format: cell-based
Procedure: (§1) Two cell lines, WM35 and HS294T, were plated out (50,000 cells per well, 24 well plate) and allowed to adhere. After 24 hours, the cells were treated for 4 hours with varying concentrations (5-80 μM) of Cisplatin (cis-platinum (II) diammine dichloride), a well-known chemotherapeutic agent that induces apoptosis. […] Adherent cell populations were then lifted from the solid support by trypsinization, centrifuged (400× g), and resuspended in PBS (0.125 ml). To observe the nuclear morphology and percent cell death in the WM35 and HS294T cell lines, cells from both floater and adherent populations were stained concurrently with Syto16 and ethidium homodimer (125 ul of cell suspension+2.5 ul 62.5uM Sytol6+[…] 10 ug/ml ethidium homodimer, 10 minutes at 37° C.). Ethidium homodimer is a membrane impermeant compound that fluoresces in the 617 nm range when it is intercalated with chromosomal DNA. Thus, in a mixed cell population containing both living and dead/dying cells, only those cells whose membranes have been compromised will stain with ethidium homodimer. In contrast, Syto 16 (Molecular Probes) is a membrane permeant dye that fluoresces in the 518 nm range when associated with chromosomal DNA. Together, these two dyes can be used to observe and distinguish the nuclear morphology in a population containing both living and dead/dying cells.

HS294T cells = assay: Nuclear condensation / ethidium homodimer and Syto16 staining, HS294T; format: cell-based
Procedure: as §1

HT29 cells = assay: Induction of apoptosis in HT29 cells carrying pVT324; format: cell-based, human; details: after 48 hours of treatment
Procedure: Cells that are positive for PI uptake may either be necrotic, or be in the late stages of apoptosis. In order to address specifically the question of whether DNA recovered from cells undergoing apoptosis can serve as a good template for PCR, the following experiment was performed. HT29 cells containing a retroviral construct that constitutively expresses GFP (pVT324) were treated with sulindac sulfide to induce apoptosis. […] Apoptotic cells were counted into PCR tubes and PCR was carried out using primers specific for the amplification of the retroviral GFP construct. Live cells from an untreated culture were used as PCR controls. There was no apparent difference in amplification of the GFP product from apoptotic cells when compared to live cells (FIG. 11). Thus DNA recovered from cells undergoing either necrotic or apoptotic cell death can serve as an effective template for PCR amplification and construction of sublibraries.

T47D cells = assay: Camptothecin kill curve in T47D cells; format: cell-based
Procedure: Approximately 250,000 cells were seeded into each well of a six well plate. Cells were then grown in media containing camptothecin of varying concentrations (0-10 uM). After 5 days, the number of cells remaining in each of the camptothecin-treated wells was compared with untreated controls. From these experiments, it was determined that camptothecin concentrations ranging from 1-4 nM had no effect on T47D cell number over the course of the 5 days of treatment. […] In order to determine whether this level of treatment is concomitantly increasing the number of floaters in the population, several flasks are seeded with T47D cells and then treated with 1-4 nM concentrations of camptothecin. After a period of three to five days, the media is collected and the number of floater cells are counted and compared to the total number of cells in the flask (floaters+adherents).

HuVEC 9F0293 cells = assay: Time course of detachment and PI staining of HuVEC 9F0293; format: cell-based, Human; details: puromycin 2 ug/ml
Procedure: To determine the time course in which dead and/or dying HuVECs detach from the solid support in response to a cytotoxic agent, 9F0293 cells were plated and subsequently treated with puromycin (2 ug/ml). Both floater and adherent cell populations were then collected at varying times (t=4, 7, 9, 16, 20, and 24 hours) and analyzed to determine (a) the percent PI^+ cells in the floater population and (b) the fraction of cells which became floaters. […] The fraction of floaters that stained with PI (PI^+ population) increased with time.

HMEC 96A cells = assay: Floater assay with propidium iodide viability, HMEC 96A; format: cell-based, human; details: for Propidium Iodide Staining / Percent Floaters: HMEC 96A
Procedure: (§2) A floater assay involving primary human mammary cells (HMECs), immortalized and transformed with a minimum number of genetic elements, was performed as follows. Primary pooled HMECs (Biowhittaker/Clonetics) were immortalized and transformed with two methods: 1) Serial introduction and expression of retroviral constructs encoding SV-40 Lg T Ag, human telomerase catalytic subunit hTERT, and activated V12H-ras (method of Hahn, et al, Nature 400: 464-468, 1999) and 2) serial introduction and expression of constructs encoding HPV-16 E6/E7, hTERT and V12H-ras. The lines are designated 96C and 96A, respectively. The retroviral constructs BABE/neomycin/SV-40 Lg T Ag BABE/LNCX/puromycin/hTERT, LXSN/hygromycin/V-12H-Ras and LXSN/neomycin/HPV-16 E6/E7 were utilized.
(§3) To determine background floater rates, cells were plated to 20% confluency in three 100 mm dishes (100000 cells/dish) and the number of floaters as a percentage of total cells (adherent+floaters) and the viability of floaters ascertained at two, three and four days post-platin . Viability was assessed by measuring propidium iodide uptake. In addition to untreated controls, a transduction control vector pVT 340 (pCLMFG/GFP) and a positive control BID/MFG vector, a pro-apoptotic protein previously identified in a colorectal carcinoma HT29 negative selection, were utilized. Cells were transduced with 30% (v/v) viral supernatants at 95% and 45% rates, respectively.

HMEC 96C cells = assay: Floater assay with propidium iodide viability, HMEC 96C; format: cell-based, human; details: for Propidium Iodide Staining / Percent Floaters: HMEC 96C
Procedure: as §2, §3

## CC(C)CC[C@@H](O)[C@](C)(O)[C@H]1CC[C@@]2(O)C3=CC(=O)[C@@H]4C[C@@H](O)[C@@H](O)C[C@]4(C)[C@H]3CC[C@]12C [ponesterone A]
[1]
  increase of fluorescence level versus absence of inducer: increases by approximately thirty fold

## N.N.[Cl-].[Cl-].[Pt+2] [Cisplatin, cis-platinum (II) diammine dichloride]
WM35 (melanoma) cells
  caspase-3 positive cells among PI-minus floater cells: 94.6%
WM35 cells; WM35 adherent cells, Cisplatin experiment
  ethidium homodimer staining of adherent cell population: < 10%
WM35 cells; WM35 floaters, Cisplatin treated
  floater cells stained with ethidium homodimer: 45-50%
WM35 cells; WM35 floaters, higher concentrations of Cisplatin
  condensed or fragmented nuclei: 40-50%
HS294T cells; HS294T adherent cells, Cisplatin experiment
  ethidium homodimer staining of adherent cell population: < 10%
HS294T cells; HS294T floaters stained with ethidium homodimer, Cisplatin treated
  cells showing condensed or fragmented nuclei: < 20%
HS294T cells; HS294T floaters, Cisplatin 5-80 μM 4 hours, collected 18-24 hrs later
  floater cells stained with ethidium homodimer: greater than 50%

## CSc1ccc(/C=C2/C(C)=C(CC(=O)O)c3cc(F)ccc32)cc1 [sulindac sulfide]
HT29 cells
  cell detachment and apoptotic morphology: the majority of the cells had detached from the dish and showed typical apoptotic morphology

## CC[C@@]1(O)C(=O)OCc2c1cc1n(c2=O)Cc2cc3ccccc3nc2-1 [camptothecin]
T47D cells; 10 nM camptothecin, 5 days
  cell number relative to untreated control: roughly one third that found in the untreated control
T47D cells; 5 days
  concentration tolerated without adverse effect on cell viability or division: up to 4 nM
  concentrations at which virtually no cells remained adhered to the plate: greater than 50 nM
  concentrations resulting in a decrease in cell number relative to untreated control: greater than 4 nM
T47D cells; 5 days of treatment
  concentrations with no effect on T47D cell number: 1 to 4 nM

## COc1ccc(C[C@H](N)C(=O)N[C@H]2[C@@H](O)[C@H](n3cnc4c(N(C)C)ncnc43)O[C@@H]2CO)cc1 [puromycin]
HuVEC 9F0293 cells
  time course of detachment: the majority of HuVECs detached by the 16-hour time point
HuVEC 9F0293 cells; by 20 hours
  floater cells in the PI+ gate: nearly all
HuVEC 9F0293 cells; within 24 hours
  cells that became floaters: 90-99%
HuVEC 9F0293 cells; 4, 7, and 9 hours
  PI− versus PI+ floater cells: near equal numbers

B1: BID: positive control BID/MFG vector, a pro-apoptotic protein previously identified in a colorectal carcinoma HT29 negative selection (protein, UniProt P55957 1-195, looked up)
BH3-interacting domain death …: MDCEVNNGSSLRDECITNLLVFGFLQSCSDNSFRRELDALGHELPVLAPQWEGYDELQTDGNRSSHSRLGRIEADSESQEDIIRNIARHLAQVGDSMDRSIPPGLVNGLALQLRNTSRSEEDRNRDLATALEQLLQAYPRDMEKEKTMLVLALLLAKKVASHTPSLLRDVFHTTVNFINQNLRTYVRSLARNGMD
modifications: expressed from MFG retroviral vector
notes: positive control BID/MFG vector, a pro-apoptotic protein previously identified in a colorectal carcinoma HT29 negative selection
HMEC 96A cells; Adherent, DAY 3
  Propidium Iodide Staining: 1.6%
HMEC 96A cells; Adherent, DAY 4
  Propidium Iodide Staining: 0.4%
HMEC 96A cells; DAY 2
  Percent Floaters: 54%
HMEC 96A cells; DAY 3
  Percent Floaters: 25%
HMEC 96A cells; DAY 4
  Percent Floaters: 8%
HMEC 96A cells; Floaters, DAY 3
  Propidium Iodide Staining: 72%
HMEC 96A cells; Floaters, DAY 4
  Propidium Iodide Staining: 45%
HMEC 96A cells; line 96A, days 3 and 4
  propidium iodide positive in adherents: 0.4-1.6%
  propidium iodide positive in floaters: 45-75%
HMEC 96C cells; Adherent, DAY 3
  Propidium Iodide Staining: 8.5%
HMEC 96C cells; Adherent, DAY 4
  Propidium Iodide Staining: 0.5%
HMEC 96C cells; DAY 2
  Percent Floaters: 46%
HMEC 96C cells; DAY 3
  Percent Floaters: 58%
HMEC 96C cells; DAY 4
  Percent Floaters: 7%
HMEC 96C cells; Floaters, DAY 3
  Propidium Iodide Staining: 81%
HMEC 96C cells; Floaters, DAY 4
  Propidium Iodide Staining: 70%
HMEC 96C cells; line 96C, days 3 and 4
  propidium iodide positive (adherents): 0.5-8.5%
  propidium iodide positive in floaters: 70-81%
